These results are taken from patent US20210337847A1, “Mint Flavor Compositions” (The Procter & Gamble Company, priority 2020, published 2021).

Experiment [1] is described as follows: Comparison of cooling attributes of (−)-menthol and racemic menthol in a toothpaste (CREST Cavity formulation). Type of experiment: in vivo. Particulars: for Potency compared to L-Menthol / Time Point at Maximum Cooling / Maximum Cooling (0-60 scale) / Maximum Longevity: CREST Cavity formulation; for Maximum Cooling (0-60 scale): 60 = greatest amount of cooling, 0 = least; for Maximum Longevity: longevity of cooling; for EC 50: concentration of coolant giving 50% of its maximal cooling. The text has this: The following data helps support the use of racemic menthol to reduce costs of mint flavor compositions herein described. From internal unpublished research, Table B compares replacing (−)-menthol with a racemic menthol in a 1:1 in a toothpaste formulation. Such a direct replacement is not preferred given the reduced cooling profile and olfactory differences; however, a portion of L-menthol is preferably replaced by racemic-menthol to gain cost efficiency while minimizing impact to the overall mint flavor profiles.
Table B is a comparison of attributes between (-)-menthol and racemic menthol in a toothpaste context (using CREST Cavity formulation).
This value represents the concentration of a coolant where 50% of its maximal cooling is observed.

The nature of experiment [2]: Expert sensory testing of racemic menthol versus (−)-menthol in a toothpaste formulation (CREST Cavity) with a standard spearmint flavor. Type of experiment: in vivo. The protocol:
In separate, unpublished internal experiments, perceptual experiences of racemic menthol are quantified via expert sensory testing. The use of a standard spearmint flavor (minimizing extra menthol contribution) compared racemic menthol to (−)-menthol in a toothpaste formulation (CREST Cavity). There are several sensory observations taken from these experiments. […] These aromatic notes appear during brushing and disappear after 5-10 minutes post expectoration and are more pronounced as concentrations increase.

For `CC1CCC(C(C)C)C(O)C1` (racemic) [Racemic Menthol, racemic menthol], in experiment [1], the “Potency compared to L-Menthol” value is ~0.65-0.7x, the “Time Point at Maximum Cooling” value was about 1 min, the “Maximum Cooling (0-60 scale)” value worked out at 35 and the “Maximum Longevity” value was “Up to 20 minutes”. In experiment [1], the “EC 50” value is listed as 1,250 to 1,500 parts per million. In addition, the “Less potent than (−)-menthol for cooling” value in experiment [2] is recorded as 25-30%.
`CC1CCC(C(C)C)C(O)C1` (single isomer, unassigned; (-)) [(−)-Menthol, (−)-menthol]: in experiment [1], the “Potency compared to L-Menthol” value stood at 1x, the “Time Point at Maximum Cooling” value is about 5 min, the “Maximum Cooling (0-60 scale)” value was 40 and the “Maximum Longevity” value was “Up to 25 minutes”. Also, in experiment [1], the “EC 50” value is given as 1,750 to 2,250 parts per million.
